Data: paper PMC6257627, “Target Validation and Identification of Novel Boronate Inhibitors of the Plasmodium falciparum Proteasome” (Journal of Medicinal Chemistry, 2018)
*: point of attachment. AMC = Cc1cc(=O)oc2cc(N*)ccc12

Legend:
[1] = tested on: P. falciparum Cam3.II^Rev; assay: 3 h pulsed exposure viability assay, K13 wild-type revertant early rings; assay type: cell-based, Plasmodium falciparum; conditions: for Cam3.II^Rev LD50 (3 h): early ring (1–3 h p.i.), 3 h pulse, viability in next cycle, mean ± SEM, n=3; for Cam3.IIRev LD50 (3-h): supplement CSV
Protocol: (§1) For standard assays of antiplasmodial activity, sorbitol-treated ring stage parasites were incubated with the drugs for 72 h and viability was assessed in the second cycle.[12] Drug pulse assays were performed as described previously.[47] For short pulse assays, tightly synchronized early ring stage parasites (1–3 h after invasion) at 0.2% hematocrit and 1–2% parasitemia were subjected to 3 h drug pulse at 37 °C and returned to culture until parasites reached trophozoite stage of the following cycle. Cells were then stained with 2 μM Syto-61 (Thermo Fisher Scientific), and their fluorescence was measured by flow cytometry (FACSCanto II cytometer; Becton Dickinson). Data were gated and analyzed using FCS Express software (version 3) to determine parasitemia of each sample. Viability represents the parasitemia normalized to untreated and “kill treated” controls, where “kill treated” refers to samples treated with 2 μM DHA for 48–72 h. Interactions between DHA and MPI-1 or MPI-4 against the K13 mutant (DHA resistant) Cam3.II P. falciparum strain, exposed to a 3 h pulsed treatment, were determined at 4 h after invasion as described previously.[12]

[2] = tested on: human constitutive proteasome and immunoproteasome catalytic subunits; assay: BMV037 active site probe competition, purified human 20S proteasomes; assay type: biochemical; conditions: for subunit specificity by BMV037 probe labeling, human constitutive proteasome and immunoproteasome: compounds 1 h, probe 2 h
[3] = tested on: HCT116 cells; assay: HCT116 cellular toxicity (CellTiter-Glo, 72 h); assay type: cell-based, human; conditions: for HCT116 LD50 (72 h): 72 h incubation, mean ± SEM or half range, 2–4 experiments; for HCT116 LD50 (72-h): supplement CSV
Protocol: HCT-116 and HepG2 cells were obtained from the American Type Culture Collection and maintained as recommended by the supplier. Cells were cultured in the ATCC-formulated McCoy’s 5A medium or DMEM (Life Technologies, CA), supplemented with fetal bovine serum to a final concentration of 9–10%, and incubated at 37 °C in an atmosphere of 95% air and 5% CO2. Cellular toxicity assays were performed using Promega’s CellTiter-Glo assay system. Varying concentrations of the test compounds in 5% DMSO/95% PBS were dispensed into a 384-well plate and cells added to each well. The plates were incubated at 37 °C for 72 h, and the CellTiter-Glo assay to assess cell viability was performed as described by the manufacturer (Promega).
For human cell line activity assays, cellular toxicity assays were performed as described previously.[23],[48]

[4] = tested on: Pf20S proteasome β1, β2, β5 subunits; assay type: biochemical, P. falciparum; conditions: compounds 1 h, purified Pf20S or infected erythrocytes
[5] = tested on: P. falciparum Cam3.II^R539T; assay: 3 h pulsed exposure viability assay, K13 mutant early rings; assay type: cell-based, Plasmodium falciparum; conditions: for Cam3.II^R539T LD50 (3 h): early ring (1–3 h p.i.), 3 h pulse, viability in next cycle, mean ± SEM, n=3; for Cam3.IIR539T LD50 (3-h): supplement CSV
Protocol: as §1

[6] = tested on: HepG2 cells; assay: HepG2 cellular toxicity (CellTiter-Glo, 72 h); assay type: cell-based, human; conditions: for HepG2 LD50 (72 h): 72 h incubation, mean ± SEM or half range, 2–4 experiments; for HepG2 LD50( 72-h): supplement CSV
[7] = tested on: bortezomib-resistant 3D7 B1 line (clone B1a); assay: 72 h viability assay, bortezomib-resistant B1 line / clone B1a; assay type: cell-based, Plasmodium falciparum; conditions: for cross-resistance of the bortezomib-resistant parasite line (B1): growth inhibition, versus 3D7; for bortezomib-resistant 3D7 B1 line LD50 (72 h): ring stage, mean ± SEM, n=3; for Bortezomib-resistant3D7 B1 LD50 (72-h): supplement CSV
Protocol: as §1
Prior to selection, an aliquot of the parental line was stocked as a reference for subsequent whole genome sequencing analysis. Several independent clones of P. falciparum 3D7 parasite line were cultured in Petri dishes exposed to increasing drug pressure for ∼30 weeks. Parasites were cloned by limiting dilution. For parasite extraction and genomic DNA isolation, cultures were scaled up to at least 4–5% parasitaemia, lysed in saponin, and genomic DNA was isolated using ISOLATE II Genomic DNA kit (Bioline). DNA libraries for each gDNA sample were prepared for sequencing using the Nextera XT kit as described previously.[50] Libraries were clustered and run on an Illumina HiSeq 2500 using the RapidRun mode, sequencing 100 base pairs in depth on either end. Paired-end reads were either aligned to the P. falciparum 3D7 reference genome (PlasmoDB version 13.0).

[8] = tested on: P. falciparum 3D7 parasites; assay: Standard 72 h antiplasmodial viability assay, 3D7; assay type: cell-based, Plasmodium falciparum; conditions: for Pf3D7 LD50 (72 h): sorbitol-treated ring stage, viability in next cycle (~72 h), mean ± SEM, n=3; for Pf3D7 LD50 (72-h): supplement CSV
Protocol: P. falciparum parasites used in this study were propagated in O+ human erythrocytes (Australian Red Cross Blood Service) in RPMI-1640, supplemented with GlutaMAX, 25 mM HEPES (Thermo Fisher Scientific), 5% (v/v) human serum (Australian Red Cross Blood Service), 0.25% (w/v) AlbuMAX II (Thermo Fisher Scientific), 10 μM D-glucose, 22 μg/mL gentamycin (Sigma-Aldrich), and 0.5 mM hypoxanthine (Sigma-Aldrich) and incubated at 37 °C in an atmosphere of 1% O2, 5% CO2, and 94% N2. Cultures were monitored by Giemsa staining of methanol-fixed blood smears. Culture medium was replaced at least every 48 h, and parasitemia was maintained below 10% to ensure health of cultures. The GFP-DD reporter strain was kindly provided by Dr. Paul Gilson, Dr. Brendan Crabb, and Dr. Mauro F. Azevedo (Burnet Institute).
as §1

[9] = tested on: Pf20S proteasome subunits of bortezomib-resistant parasites; assay: BMV037 active site probe competition, bortezomib-resistant parasites; assay type: biochemical, P. falciparum; conditions: compounds 1 h
Protocol: Figure 3 Active site probe analysis of the proteasome subunit specificity of the selected compounds in 3D7 parent and bortezomib-resistant parasites. Purified Pf20S proteasome from wild-type 3D7 (A) and bortezomib-resistant (C) parasites or wild-type 3D7 (B) and bortezomib-resistant (D) trophozoite-infected erythrocytes were treated with compounds for 1 h, and activity-based probe (BMV037) labeling was performed (postlysis for the trophozoite samples). Fluorescent gel scans reveal subunits that remain active after treatment.
P. falciparum culture, purified Pf20S proteasomes, human constitutive proteasomes, or immunoproteasomes (Boston Biochem) were incubated with test compounds at 37 °C for 1 h. Treated parasite lysates (10 μg), Pf20S proteasomes (80 nM), human constitutive proteasomes (20 nM), or immuno-20S proteasomes (20 nM) were labeled with BMV037 (10 μM) at 37 °C for 2 h. Samples were mixed with SDS loading buffer and heated at 95 °C for 5 min. Samples for P. falciparum and human immuno-20S were run on 4–12% Bis-Tris acrylamide gels using MES SDS running buffer (Thermo Fisher Scientific). Human constitutive 20S samples were run on a 10% Bis-Tris acrylamide gel using MOPS SDS running buffer (Thermo Fisher Scientific). Gels were imaged at the Cy5 channel on a Gel Doc XR+ Documentation System (Bio-Rad) or an Amersham Typhoon Trio imager (GE Healthcare Life Sciences).

[10] = molecular target: Plasmodium falciparum 20S proteasome β1 (Plasmodium falciparum, UniProt Q8I0U7+Q8I6T3); assay type: biochemical
[11] = molecular target: Plasmodium falciparum 20S proteasome β5 (Plasmodium falciparum, UniProt A0A5K1K7U1+Q8IJT1); assay: Pf20S proteasome fluorogenic assay, chymotrypsin-like activity (Ac-WLA-AMC); assay type: biochemical; conditions: 0.8 μM carfilzomib
[12] = molecular target: Plasmodium falciparum 20S proteasome β2 (Plasmodium falciparum, UniProt Q8I261+Q8I6T3); assay type: biochemical
[13] = tested on: Pf20S proteasome; assay: Validation of resynthesized Ac-P3-P2-P1-AMC substrates, Pf20S; assay type: biochemical, P. falciparum; conditions: 10 μM
Protocol: (§2) AMC (10 μM) was used as the fluorescence standard. Pf20S reaction condition: Pf20S (1 nM), human PA28 αβ (24 nM), in 50 mM Tris, pH 7.5, 5 mM MgCl2, 1 mM DTT, 0.01% BSA. Human 20S reaction condition: 0.25 nM human constitutive proteasome or immunoproteasome (Boston Biochem), PA28 αβ (24 nM) in 20 mM HEPES, pH 7.4, 0.5 mM EDTA, 0.01% BSA. The assays were read in kinetic mode at 37 °C using a BMG PHERAstar plate reader, and the rate data were normalized to activity obtained using the Ac-WLR-AMC substrate (=1000 units). For validation of substrate preferences, relevant Ac-P3-P2-P1-AMC substrates were resynthesized by CPC Scientific, CA, USA, and assayed for activity against human and P. falciparum 20S proteasomes in 96-well plates (80 μL reaction, 10 μM substrate) under the same reaction condition.

[14] = molecular target: T1, human proteasome β2 (Homo sapiens, UniProt P49720+Q99436); assay: Validation of resynthesized Ac-P3-P2-P1-AMC substrates, human proteasome; assay type: biochemical; conditions: 10 μM
T1 construct: purchased Boston Biochem
Protocol: as §2

Chain of Plasmodium falciparum 20S proteasome β2 (Q8I261 entry or part of it): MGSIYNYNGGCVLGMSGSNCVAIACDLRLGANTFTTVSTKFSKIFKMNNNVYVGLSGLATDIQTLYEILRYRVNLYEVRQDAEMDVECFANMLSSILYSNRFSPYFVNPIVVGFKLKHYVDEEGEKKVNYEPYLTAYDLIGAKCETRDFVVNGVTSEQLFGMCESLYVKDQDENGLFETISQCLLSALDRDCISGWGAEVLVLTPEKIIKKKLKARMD
Chain of Plasmodium falciparum 20S proteasome β2 (Q06323 whole entry, further chain): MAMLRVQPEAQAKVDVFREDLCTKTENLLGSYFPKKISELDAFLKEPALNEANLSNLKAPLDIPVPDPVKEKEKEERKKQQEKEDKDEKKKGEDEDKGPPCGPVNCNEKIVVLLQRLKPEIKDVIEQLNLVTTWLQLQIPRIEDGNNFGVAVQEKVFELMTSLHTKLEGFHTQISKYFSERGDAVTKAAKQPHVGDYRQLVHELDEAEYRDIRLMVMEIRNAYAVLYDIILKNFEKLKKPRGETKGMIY
Chain of Plasmodium falciparum 20S proteasome β2 (Q8I6T3 entry or part of it): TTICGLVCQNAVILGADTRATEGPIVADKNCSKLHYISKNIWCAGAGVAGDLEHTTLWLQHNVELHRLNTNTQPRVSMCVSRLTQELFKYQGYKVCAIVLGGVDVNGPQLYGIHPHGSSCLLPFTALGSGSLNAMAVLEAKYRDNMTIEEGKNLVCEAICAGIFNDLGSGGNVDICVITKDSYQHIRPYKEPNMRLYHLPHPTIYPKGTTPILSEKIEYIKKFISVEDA
Chain of Plasmodium falciparum 20S proteasome β2 (Q9UL46 2-239, further chain): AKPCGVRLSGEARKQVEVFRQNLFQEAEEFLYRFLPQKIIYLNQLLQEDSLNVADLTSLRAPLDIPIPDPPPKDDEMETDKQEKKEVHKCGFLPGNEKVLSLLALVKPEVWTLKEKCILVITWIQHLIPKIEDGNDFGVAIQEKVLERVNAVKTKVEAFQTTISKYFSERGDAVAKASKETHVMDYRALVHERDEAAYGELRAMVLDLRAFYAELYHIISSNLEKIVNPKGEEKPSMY
Chain of Plasmodium falciparum 20S proteasome β5 (Q9UL46 2-239): as the sequence (Q9UL46 2-239, further chain) above
Chain of Plasmodium falciparum 20S proteasome β5 (A0A5K1K7U1 entry or part of it): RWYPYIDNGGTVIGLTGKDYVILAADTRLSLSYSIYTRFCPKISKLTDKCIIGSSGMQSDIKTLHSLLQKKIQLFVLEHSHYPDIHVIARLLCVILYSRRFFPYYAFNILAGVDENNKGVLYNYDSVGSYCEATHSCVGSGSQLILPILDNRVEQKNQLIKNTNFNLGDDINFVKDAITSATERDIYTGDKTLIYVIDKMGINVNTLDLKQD
Chain of Plasmodium falciparum 20S proteasome β5 (Q06323 whole entry, further chain): as the sequence (Q06323 whole entry, further chain) above
Chain of Plasmodium falciparum 20S proteasome β5 (Q8IJT1 entry or part of it): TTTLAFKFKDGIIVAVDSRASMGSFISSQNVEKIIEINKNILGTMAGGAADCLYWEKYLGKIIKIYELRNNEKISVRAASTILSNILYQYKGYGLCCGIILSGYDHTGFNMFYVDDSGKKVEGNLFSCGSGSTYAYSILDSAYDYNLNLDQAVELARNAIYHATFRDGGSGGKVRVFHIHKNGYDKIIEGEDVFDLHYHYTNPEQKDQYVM
Chain of Plasmodium falciparum 20S proteasome β1 (Q9UL46 2-239): as the sequence (Q9UL46 2-239, further chain) above
Chain of Plasmodium falciparum 20S proteasome β1 (Q8I0U7 entry or part of it): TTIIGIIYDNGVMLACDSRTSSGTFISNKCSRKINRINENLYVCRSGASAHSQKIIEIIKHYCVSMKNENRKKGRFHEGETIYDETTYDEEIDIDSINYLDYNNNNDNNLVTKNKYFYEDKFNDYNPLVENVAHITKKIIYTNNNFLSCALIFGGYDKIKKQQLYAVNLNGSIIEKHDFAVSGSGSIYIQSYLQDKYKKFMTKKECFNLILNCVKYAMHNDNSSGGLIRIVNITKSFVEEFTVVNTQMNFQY
Chain of Plasmodium falciparum 20S proteasome β1 (Q8I6T3 entry or part of it): as the sequence (Q8I6T3 entry or part of it) above
Chain of Plasmodium falciparum 20S proteasome β1 (Q06323 whole entry, further chain): as the sequence (Q06323 whole entry, further chain) above

Compound | Cam3.II^Rev LD50 (3 h) [1] | Cam3.IIRev LD50 (3-h) [1] | subunit specificity by BMV037 probe labeling, human constitutive proteasome and immunoproteasome [2] | HCT116 LD50 (72 h) [3] | HCT116 LD50 (72-h) [3] | subunit specificity by BMV037 probe labeling, wild-type 3D7 [4] | Cam3.II^R539T LD50 (3 h) [5] | Cam3.IIR539T LD50 (3-h) [5] | HepG2 LD50 (72 h) [6] | HepG2 LD50( 72-h) [6] | cross-resistance of the bortezomib-resistant parasite line (B1) [7] | bortezomib-resistant 3D7 B1 line LD50 (72 h) [7] | Bortezomib-resistant3D7 B1 LD50 (72-h) [7] | Pf3D7 LD50 (72 h) [8] | Pf3D7 LD50 (72-h) [8] | activity as substrate for Pf20S [13] | also measured
CC(=O)N1CCC[C@H]1C(=O)N[C@@H](C)C(=O)N[C@@H](CC(C)C)B(O)O [MPI-2] | 1.8 ± 0.2 µM | 1.8 ± 0.2 µM | preferentially inhibited β1c and β5i | 1.3 ± 0.3 µM | 1.3 ± 0.3 µM | preferentially inhibited binding of the probe to the β5 subunit | 1.5 ± 0.2 µM | 1.5 ± 0.2 µM | 2.4 ± 0.73 µM | 2.4 ± 0.73 µM | very strong cross-resistance | >2 µM | > 2 µM | 0.16 ± 0.02 µM | 0.16 ± 0.02 µM | – | BMV037 labeling of the β5 active site in bortezomib-resistant parasites [9]: no longer able to prevent BMV037 labeling of the β5 active site
Cc1ccc(S(=O)(=O)N[C@@H](CC(=O)NCC(C)(C)C)C(=O)N[C@@H](Cc2ccccc2)C(=O)N[C@@H](CC(C)C)B(O)O)cc1 [MPI-3] | 0.21 ± 0.03 µM | 0.21 ± 0.03 µM | preferential inhibition of the β1 and β5 subunits | 0.027 ± 0.002 µM | 0.027 ± 0.002 µM | inhibited both β2 and β5 activities | 0.19 ± 0.03 µM | 0.19 ± 0.03 µM | 0.26 ± 0.06 µM | 0.26 ± 0.06 µM | retained sensitivity | 0.054 ± 0.007 µM | 0.054 ± 0.007 µM | 0.065 ± 0.004 µM | 0.065 ± 0.004 µM | – | BMV037 labeling of the human β1 and β5 subunits after treatment ([2]; 1 μM, especially constitutive proteasome): still evident; IC50 ([8]; Plasmodium falciparum, 3D7, dose–response profiles, n = 3, read-out: 50% viability inhibitory concentration against 3D7 parasites): ~60 nM; BMV037 competition profile in bortezomib-resistant parasites [9]: very similar in the bortezomib-resistant and wild-type parasites
CC(C)C[C@H](NC(=O)[C@H](CCc1ccccc1)NC(=O)CN1CCOCC1)C(=O)N[C@@H](Cc1ccccc1)C(=O)N[C@@H](CC(C)C)C(=O)[C@@]1(C)CO1 [carfilzomib] | – | – | – | – | – | – | – | – | – | – | – | – | – | – | – | – | inhibitory effect against Pf20S proteasome β1 activity [10]: only weak inhibitory effect; Pf20S β5 activity with carfilzomib [11]: completely abrogated; Pf20S β2 activity with carfilzomib [12]: completely abrogated
Ac-Arg-Gln-Arg-{AMC} | – | – | – | – | – | – | – | – | – | – | – | – | – | – | – | inactive | activity as substrate for human proteasome β2 [14]: good human proteasome β2 substrate
Ac-Lys-Trp-His-{AMC} | – | – | – | – | – | – | – | – | – | – | – | – | – | – | – | both active and selective for Pf20S | –
Ac-Trp-Trp-Lys-{AMC} | – | – | – | – | – | – | – | – | – | – | – | – | – | – | – | both active and selective for Pf20S | –
